Data on one compound can be found in patent US20210024634A1, “METHODS FOR PREDICTING AND ENHANCING THERAPEUTIC BENEFIT FROM CHECKPOINT INHIBITORS IN CANCER” (The Brigham and Women's Hospital, Inc., priority 2018, published 2021).

Entries after “also recorded” stand apart in the source; their conditions may differ.

Assay [1] concerns CD200. Description: qPCR of CD200 RNA levels in melanoma cell lines after MEK-inhibitor treatment. The format is cell-based. The following applies: panel of melanoma cell lines, 24 h, 100 nM. On the procedure:
FIGS. 11A-C. 11A. CD200 decrease in melanomas after MEK-inhibitor treatment, but not in carcinomas (GSE10087). 11B. […] 11C. The pREP4-CD200 reporter recapitulates changes in response to MEK-inhibitor (24 h; 100 nM). Significance as * p<0.05: ** p<0.01, based on 2-sample, 2-tailed t-test. Because CD200 has been identified as regulated by MAPK-signaling in melanoma cells, a pathway which is frequently deregulated by BRAF(V600E) function, we wanted to assure that this mode of regulation holds true. To this end, we analyzed publicly available data (GSE10087) on MEK-inhibitor treatment across a cohort of carcinoma and melanoma cell lines (FIG. 11A), measured CD200 levels by qPCR following MEK inhibition in a cohort of our melanoma cell lines (FIG. 11B), and initial reporter assays (FIG. 11C). […] Using qPCR, we measured the effect of MEK-inhibitor treatment on CD200 RNA levels across our panel of melanoma cell lines (see FIG. 11B), using 24 h treatment with PD0325901 [100 nM].
Background: In qPCR the cycle at which signal appears reflects the starting amount.

Assay [2] relates to CD200 promoter (pREP4-CD200 reporter). Description: pREP4-CD200 reporter assay. The conditions noted are these: 24 h; 100 nM. Format: cell-based, human. The procedure:
FIGS. 11A-C. 11A. CD200 decrease in melanomas after MEK-inhibitor treatment, but not in carcinomas (GSE10087). 11B. […] 11C. The pREP4-CD200 reporter recapitulates changes in response to MEK-inhibitor (24 h; 100 nM). Significance as * p<0.05: ** p<0.01, based on 2-sample, 2-tailed t-test. The region next to the CD200 transcription start drives basal activity. We have therefore amplified an 850 bp fragment upstream of the CD200 start codon, and cloned it into an EBNA-carrying vector (pREP4-LUC/hygromycin [50]) that remains episomal and replicates within human cells and allows nucleosome deposition to form chromatin. Because CD200 has been identified as regulated by MAPK-signaling in melanoma cells, a pathway which is frequently deregulated by BRAF(V600E) function, we wanted to assure that this mode of regulation holds true. To this end, we analyzed publicly available data (GSE10087) on MEK-inhibitor treatment across a cohort of carcinoma and melanoma cell lines (FIG. 11A), measured CD200 levels by qPCR following MEK inhibition in a cohort of our melanoma cell lines (FIG. 11B), and initial reporter assays (FIG. 11C).
Background: Reporter assays use an easily measured gene product as a stand-in for the process of interest.

Turning to `O=C(NOC[C@H](O)CO)c1ccc(F)c(F)c1Nc1ccc(I)cc1F` [PD0325901], in assay [1], the “CD200 RNA levels” value was “consistently are reduced; also recorded: consistent downregulation of CD200 levels; also recorded: Consistent CD200 decrease”. For the same compound, the pREP4-CD200 reporter response result in assay [2] was “parallels these responses”.
